A short description of the data set: photoluminescence quantum yield (fraction); solvent given as SMILES.

Take `COC(=O)c1nc(-c2ccccc2)oc1C`: the photoluminescence quantum yield worked out at 0.36 (in C1CCCCC1); 0.38 (in CC#N); 0.47 (in CCO); 0.44 (in CCOC(C)=O); 0.34 (in O).
The compound `CCCCN1C(=O)c2cc(Br)c3c4c(Br)c(Br)c5c6c(cc(Br)c(c7c(Br)c(Br)c(c2c37)C1=O)c64)C(=O)N(CCCC)C5=O` had a photoluminescence quantum yield (in ClC(Cl)Cl) of 0.11.
For `COc1ccc(C2=C3C=C(/C=C/C(=O)OC(C)(C)C)C=[N+]3[B-](F)(F)n3cccc32)cc1`, the photoluminescence quantum yield (in ClCCl) is 0.13.
For the compound `CN(C)c1ccc2nc(-c3ccc(/C=N/Nc4ccccc4)cc3)sc2c1`, the photoluminescence quantum yield worked out at 0.023 (in C1CCCCC1), 0.067 (in CC#N), 0.026 (in CO) and 0.057 (in ClC(Cl)Cl).
Turning to `F[B-]1(F)n2c(Cl)ccc2C(c2c(Cl)cccc2Cl)=C2C=CC(NCc3ccccc3)=[N+]21`, the photoluminescence quantum yield stood at 0.76 (in CC#N); 0.82 (in CCCCCC); 0.67 (in CCOC(C)=O); 0.72 (in CO); 0.8 (in ClCCl).
For the setting “in ClC(Cl)Cl”, `COc1ccc(C2=Cc3c4ccccc4c4ccccc4[n+]3[B-](F)(F)O2)cc1` yielded a photoluminescence quantum yield of 0.678.
On to `COc1ccc(C#Cc2ccc(C#Cc3ccc(P(=O)(c4ccc(C#Cc5ccc(C#Cc6ccc(OC)cc6)cc5)cc4)c4ccc(C#Cc5ccc(C#Cc6ccc(OC)cc6)cc5)cc4)cc3)cc2)cc1`, for which the photoluminescence quantum yield was found to be 0.78 (in C1CCCCC1); 0.89 (in C1COCCO1); 0.79 (in CC#N); 0.86 (in CCO); 0.71 (in CS(C)=O); 0.77 (in ClC(Cl)Cl). In addition, where the note is “in ClCCl”, the photoluminescence quantum yield turned out to be 0.73.
For the compound `COC(=O)COc1ccc(/C=C/C2=[N+]3C(=C(c4ccccc4)c4c(C)cc(C)n4[B-]3(F)F)C(C)=C2)cc1`, the photoluminescence quantum yield (in CO) worked out at 1.
Turning to `c1ccc2c(c1)Sc1ccccc1N2c1ccc2c(ccc3nc4ccc5cc(N6c7ccccc7Sc7ccccc76)ccc5c4nc32)c1`, the photoluminescence quantum yield is, setting by setting: (in C1CCCCC1) 0.06; (in Cc1ccccc1) 0.07.
`Nc1ccc2c(ccc3[n+]2[B-](F)(F)n2c-3cc3c4ccccc4c4ccccc4c32)c1` registered a photoluminescence quantum yield (in ClCCl) of 0.81.
`COc1ccc(-c2nc3ccccc3nc2-c2ccc(OC)cc2)cc1` yielded a photoluminescence quantum yield (in ClC(Cl)Cl) of 0.18.
On to `COc1cccc(-c2nc(-c3ccccc3)c(-c3ccccc3)[nH]2)c1`, for which the photoluminescence quantum yield (in CO) was determined as 0.28.
For `CCC1=C(C)C2=C(C)c3c(I)c(I)c(I)n3[B-](F)(F)[N+]2=C1C`, the photoluminescence quantum yield (in C1CCCCC1) was 0.1; the photoluminescence quantum yield (in CC(C)=O) was 0.046; the photoluminescence quantum yield (in CCO) was found to be 0.061; the photoluminescence quantum yield (in CCOC(C)=O) was 0.072; the photoluminescence quantum yield (in CO) is 0.051; the photoluminescence quantum yield (in OCC(F)(F)F) stood at 0.04.
`Cc1csc2[n+]1[B-](F)(F)n1c(c3cccc4cccc1c43)=N2`: the photoluminescence quantum yield reads like this: (in C1CCOC1) 0.83; (in CC#N) 0.78; (in CCCCCC) 0.99; (in Cc1ccccc1) 0.99; (in ClCCl) 0.95.
Turning to `C1=Cc2ccccc2C(=Cc2ccc(-c3cc(-c4ccc(C=C5c6ccccc6C=Cc6ccccc65)cc4)c(-c4ccc(C=C5c6ccccc6C=Cc6ccccc65)cc4)cc3-c3ccc(C=C4c5ccccc5C=Cc5ccccc54)cc3)cc2)c2ccccc21`, where the note is “in C1CCOC1”, the photoluminescence quantum yield was determined as 0.0016.
The compound `CC(C)(C)c1cc2c(c(C(C)(C)C)c1)O[B-](F)(F)[n+]1c-2nc(-c2ccccc2)c2ccccc21` gave a photoluminescence quantum yield (in Cc1ccccc1) of 0.002.
The compound `Cc1cccc(C)c1N1C(c2ccccc2)=Cc2cccc[n+]2[B-]1(F)F` returned a photoluminescence quantum yield (in ClCCl) of 0.36.
Consider `COc1cc(OC)cc(C2=C3C(C)=C(I)C(C)=[N+]3[B-](F)(F)n3c(C)c(I)c(C)c32)c1`, for which the photoluminescence quantum yield (in CS(C)=O) was determined as 0.03.
Compound `CC(C)(C)c1ccc(C2=C(Br)C3=C(c4ccccc4)c4c(Br)c(-c5ccc(C(C)(C)C)cc5)c(-c5ccc(C(C)(C)C)cc5)n4[B-](F)(F)[N+]3=C2c2ccc(C(C)(C)C)cc2)cc1` returned a photoluminescence quantum yield (in C1CCCCC1) of 0.13; a photoluminescence quantum yield (in C1CCOC1) of 0.11; a photoluminescence quantum yield (in CC#N) of 0.03; a photoluminescence quantum yield (in Cc1ccccc1) of 0.1; a photoluminescence quantum yield (in ClCCl) of 0.09.
For the compound `COC(=O)c1ccc(NC(=O)c2ccc(N(C)C)cc2)cc1`, the photoluminescence quantum yield by setting is: (in C1CCCCC1) 0.0148; (in C1CCOC1) 0.198; (in CC#N) 0.0209; (in CCOCC) 0.0512.
In turn, `c1ccc(N(c2ccccc2)c2ccc(-c3ccc(-c4nc(-c5ccccn5)n(-c5ccccc5)n4)cc3)cc2)cc1` had a photoluminescence quantum yield (in ClCCl) of 0.392.
Same read-out and setting: the value for `C(#Cc1c2ccccc2c(-c2ccccc2)c2cc3ccccc3cc12)c1ccccc1` was 0.79.
Compound `N#CC(/N=C/c1c(O)ccc2ccccc12)=C(C#N)/N=C/c1c(O)ccc2ccccc12` gave a photoluminescence quantum yield (in CC#N) of 0.37.
Compound `Nc1ccccc1` registered a photoluminescence quantum yield (in C1CCCCC1) of 0.1.
As to `Cn1c(/C=C/c2ccc(/C=C/c3nc4ccccc4[nH]3)cc2)[n+](C)c2ccccc21`, the photoluminescence quantum yield by setting is: (in C1CCOC1) 0.157; (in CC#N) 0.109; (in CC(C)=O) 0.103; (in CN(C)C=O) 0.12; (in CO) 0.067; (in CS(C)=O) 0.114. Where the note is “in O”, the photoluminescence quantum yield stood at 0.044.
As for `c1ccc(N(c2ccccc2)c2ccccc2)cc1`, the photoluminescence quantum yield (in CCO) turned out to be 0.03.
Take `c1ccc2c(c1)-c1sc3ccccc3c1C21c2ccccc2-c2sc3ccccc3c21`: the photoluminescence quantum yield (in ClCCl) stood at 0.06.
In turn, `O=C(O)c1ccc(-c2ccc(-c3nc(-c4ccccc4)c4ccccn34)cc2)s1` gave a photoluminescence quantum yield (in CC#N) of 0.44.
For the setting “in ClC(Cl)Cl”, `c1ccc2c(-c3ccncc3)c3c(nc2c1)-c1cc2c(cc1CC3)-c1nc3ccccc3c(-c3ccncc3)c1CC2` showed a photoluminescence quantum yield of 0.961.
With `CCCCc1ccc(-n2c3c4cc(F)ccc4nnc3c3c2c2nnc4ccc(F)cc4c2n3-c2ccc(CCCC)cc2)cc1`, where the note is “in Cc1ccccc1”, the photoluminescence quantum yield was 0.
For the compound `CCOC(=O)c1ccccc1-c1c2ccc(=O)cc-2oc2cc(OC(=O)[C@H](CSCc3ccc(C)cc3)NC(=O)OC(C)(C)C)ccc12`, the photoluminescence quantum yield is 0.006 (in C1CCOC1), 0.004 (in CC#N), 0.043 (in CCO) and 0.025 (in CS(C)=O).
Turning to `Cc1ccc(C#Cc2ccc3nc4ccc(C#Cc5ccc(C)cc5)cn4c(=O)c3c2)cc1`, under “in ClCCl”, the photoluminescence quantum yield was found to be 0.43.
As for `CC/[NH+]=c1\cc2oc3cc(NCCC(=O)NC(C)C(=O)OC)c4ccccc4c3nc-2cc1C` (configuration not stated), the photoluminescence quantum yield (in CCO) worked out at 0.39.
As to `CN(C)c1ccc(C#Cc2ccc3c(N(C)C)cc(-c4ccccc4)cc3c2)cc1`, where the note is “in ClCCl”, the photoluminescence quantum yield is 0.76.
Turning to `CCn1c2ccccc2c2cc3c(cc21)c1ccccc1n3CC`, the photoluminescence quantum yield (in ClC(Cl)Cl) turned out to be 0.13.
Regarding `Cc1cc(-c2ccccc2C)cc(C)[o+]1`, the photoluminescence quantum yield is 0.1 (in CC#N) and 0.05 (in ClCCl).
As to `CCOC(=O)C1=C(C(=O)OCC)C2(c3ccccc3-c3c(Br)cc(Br)cc32)C2(/C=C/c3ccc(Cl)cc3)c3cc(OC)c(OC)cc3CCN12` (configuration not stated), the photoluminescence quantum yield (in ClCCl) came to 0.00075.
Consider `CCCCCCc1ccc(-n2c3[n+](c4c5ccccc5c5ccccc5c42)[B-](C)(C)c2cc(N(c4ccccc4)c4ccccc4)ccc2-3)cc1`, for which the photoluminescence quantum yield is 0.86 (in C1CCOC1), 0.73 (in CC#N), 0.83 (in Cc1ccccc1) and 0.88 (in ClCCl).
`CCCCCCCCCCOc1cc(OCCCCCCCCCC)cc(C2=C3C(C)=CC(/C=C/c4ccc(OC)cc4)=[N+]3[B-](F)(F)n3c(/C=C/c4ccc(OC)cc4)cc(C=Cc4ccc(OC)cc4)c32)c1` yielded a photoluminescence quantum yield (in ClC(Cl)Cl) of 0.35.
`O=C(O)c1ccc(-c2nc(-c3ccccc3)c3ccccn23)cc1` yielded a photoluminescence quantum yield (in CC#N) of 0.13.
Compound `Cn1c(=O)cc(C(=O)c2ccccc2)c2sc(-c3ccc(N(c4ccccc4)c4ccccc4)cc3)cc21` yielded a photoluminescence quantum yield (in ClCCl) of 0.05.
Compound `COc1ccc(-c2nc(-c3ccccc3)c(N(c3ccccc3)c3ccccc3)s2)cc1` displayed a photoluminescence quantum yield (in ClC(Cl)Cl) of 0.16.
Take `CCOC(CN1C(=O)C2=C(c3ccc(OC)c(OC)c3)N(CC(OCC)OCC)C(=O)C2=C1c1ccc(OC)c(OC)c1)OCC`: the photoluminescence quantum yield (in ClC(Cl)Cl) is 0.9.
Compound `CCN(CC)c1ccc(-c2nc(Oc3ccc(-c4nc5ccc(Cl)cc5o4)cc3)nc(Oc3ccc(-c4nc5ccc(Cl)cc5o4)cc3)n2)cc1` displayed a photoluminescence quantum yield (in CN(C)C=O) of 0.0179.
The compound `CC[N+](CC)=c1ccc2cc3c(=O)oc4cc5c(cc4c3oc-2c1)CCCN5C` returned a photoluminescence quantum yield (in ClCCl) of 0.265 and a photoluminescence quantum yield (in O) of 0.009.
For `N#CC(C#N)=Cc1ccc(-c2cccc(-c3nc4ccccc4s3)c2O)s1`, the photoluminescence quantum yield was found to be 0.0956 (in CCO), 0.152 (in ClCCl) and 0.01 (in O).
Under “in CC#N”, `COc1ccc(-n2nc(C#N)c(N3CCN(c4ccccn4)CC3)n2)cc1` displayed a photoluminescence quantum yield of 0.064.
`CCOC(=O)c1ccc(C2=C(c3ccccc3)c3oc4ccccc4[n+]3[B-](F)(F)O2)cc1` showed a photoluminescence quantum yield (in C1CCOC1) of 0.011.
In the case of `Nc1ccc2cc3ccccc3cc2c1`, for the setting “in C1CCCCC1”, the photoluminescence quantum yield was 0.86.
Turning to `Cc1ccc2nc3[nH]c(=O)[nH]c(=O)c3nc2c1`, the photoluminescence quantum yield is, setting by setting: (in CC#N) 0.025; (in ClCCCl) 0.034.
Under “in ClCCl”, `COc1cccc(C2=C3C=C(/C=C/C(=O)OC(C)(C)C)C=[N+]3[B-](F)(F)n3cccc32)c1` showed a photoluminescence quantum yield of 0.09.

For the origin of these results see the Deep4Chem optical property database.
